Experimental data published in the CheMixHub viscosity set.
± gives the uncertainty stated by the source.

Experiment: xn = mol fraction of the nth substance listed

CCNCCO + O
viscosity [mPa·s]
Details	293.15 K	298.15 K	303.15 K	308.15 K	313.15 K	318.15 K	323.15 K
100 kPa, x2 = 0.55	32.2 ± 0.6	–	18.1 ± 0.3	–	10.9 ± 0.2	–	6.98 ± 0.12
101 kPa, x1 = 0.0499	–	–	1.968 ± 0.019	–	–	–	–
101 kPa, x1 = 0.0998	–	–	3.824 ± 0.031	–	–	–	–
101 kPa, x1 = 0.1506	–	–	6.179 ± 0.049	–	–	–	–
101 kPa, x1 = 0.2011	–	–	8.652 ± 0.07	–	–	–	–
101 kPa, x1 = 0.2982	–	–	13.25 ± 0.11	–	–	–	–
101 kPa, x1 = 0.4029	–	–	17.07 ± 0.17	–	–	–	–
101 kPa, x1 = 0.4458	–	–	17.98 ± 0.18	–	–	–	–
101 kPa, x1 = 0.5051	–	–	18.79 ± 0.2	–	–	–	–
101.3 kPa, x1 = 0.0481	2.723 ± 0.55	–	1.934 ± 0.39	–	1.422 ± 0.28	–	1.093 ± 0.22
101.3 kPa, x1 = 0.0797	4.52 ± 0.12	3.7 ± 0.1	3.05 ± 0.08	2.56 ± 0.06	2.18 ± 0.05	1.86 ± 0.05	1.62 ± 0.04
101.3 kPa, x1 = 0.1001	7.45 ± 0.07	–	4.82 ± 0.05	–	2.74 ± 0.03	–	2 ± 0.03
101.3 kPa, x1 = 0.119	7.315 ± 1.5	–	4.617 ± 0.92	–	3.122 ± 0.63	–	2.225 ± 0.45
101.3 kPa, x1 = 0.168	11.94 ± 0.27	9.26 ± 0.21	7.3 ± 0.16	5.85 ± 0.13	4.78 ± 0.11	3.96 ± 0.09	3.34 ± 0.07
101.3 kPa, x1 = 0.2	–	–	9.31 ± 0.08	–	5.5 ± 0.05	–	3.68 ± 0.04
101.3 kPa, x1 = 0.233	17.55 ± 3.5	–	10.33 ± 2.1	–	6.544 ± 1.3	–	4.39 ± 0.88
101.3 kPa, x1 = 0.3001	23.16 ± 0.2	–	13.36 ± 0.12	–	8.19 ± 0.07	–	5.2 ± 0.05
101.3 kPa, x1 = 0.4002	28.88 ± 0.24	–	16.31 ± 0.14	–	10.32 ± 0.09	–	6.29 ± 0.05
101.3 kPa, x1 = 0.447	31.75 ± 6.4	–	17.94 ± 3.6	–	10.85 ± 2.2	–	6.977 ± 1.4
101.3 kPa, x1 = 0.5	–	–	17.86 ± 0.16	–	11.49 ± 0.1	–	6.88 ± 0.06
101.3 kPa, x1 = 0.6001	31.42 ± 0.27	–	17.96 ± 0.16	–	11.66 ± 0.1	–	7.05 ± 0.06
101.3 kPa, x1 = 0.7	28.21 ± 0.25	–	16.61 ± 0.15	–	10.91 ± 0.1	–	6.74 ± 0.06
101.3 kPa, x1 = 0.8002	23.04 ± 0.21	–	14.28 ± 0.13	–	9.46 ± 0.09	–	6.18 ± 0.06
101.3 kPa, x1 = 0.9001	17.51 ± 0.16	–	11.45 ± 0.11	–	7.8 ± 0.07	–	5.19 ± 0.05
101.3 kPa, x2 = 0.3547	30.01 ± 6	–	–	–	10.6 ± 2.1	–	6.882 ± 1.4
101.33 kPa, x1 = 0.019	1.537 ± 0.13	1.336 ± 0.11	1.172 ± 0.098	1.038 ± 0.087	0.927 ± 0.077	0.833 ± 0.069	0.755 ± 0.062
101.33 kPa, x1 = 0.0419	2.508 ± 0.21	2.112 ± 0.17	1.804 ± 0.15	1.559 ± 0.13	1.362 ± 0.11	1.201 ± 0.098	1.068 ± 0.087
101.33 kPa, x1 = 0.0686	3.671 ± 0.3	3.152 ± 0.26	2.613 ± 0.21	2.222 ± 0.18	1.896 ± 0.16	1.643 ± 0.13	1.438 ± 0.12
101.33 kPa, x1 = 0.1	5.847 ± 0.48	4.671 ± 0.38	3.798 ± 0.31	3.14 ± 0.26	–	2.241 ± 0.18	1.934 ± 0.16
